# From publication PMC9403976, “Elucidating the path to Plasmodium prolyl-tRNA synthetase inhibitors that overcome halofuginone resistance” (Nature Communications, 2022)
# Read-outs that look alike come from different tables or passages of the source.
# Key:
# [1] = system: P. falciparum Dd2-2D4; test: P. falciparum asexual blood stage (ABS) growth assay, SYBR Green, 72 h, wild-type parasites; type: cell-based, Plasmodium falciparum; details: Plasmodium falciparum; cell line Dd2-2D4 (parent); read-out: EC50 [nM] mean
# [2] = system: P. falciparum Dd2-2D4 NCP26 selections S1-3; test: ABS growth assay on bulk populations and clones from NCP26 resistance selections S1-3; type: cell-based, Plasmodium falciparum; details: Plasmodium falciparum
# Experimental: In short, P. falciparum erythrocytic-stage parasites at 1% parasitemia and 1% hematocrit in RPMI + 0.5% Albumax were seeded at 40 μL/well in 384-well plates with test compounds in triplicate, dose-response format with 10 μM dihydroartemisinin as a kill-control and blank (no compound) wells as a growth-control. […] After 72 h, growth was quantified by measuring fluorescence (Molecular Devices SpectraMax iD5) following SYBR Green 1 staining. Data were analyzed in Excel and plotted in PRISM (V. 8.4.3–9.1.0, GraphPad).
# This cycle was repeated for ~50 generations (~100 days), corresponding to 5–6 cycles of drug pressure.
# Clonal parasites were isolated from each selection flask by limiting dilution of ring stage parasites in 96-well plates to an average of 0.8 and 0.2 parasites per well.
compound,measurement,setting,value
"C[C@H]1[C@@H](O)O[C@@H]2O[C@@]3(C)CC[C@H]4[C@H](C)CC[C@@H]1[C@@]24OO3 [DHA, dihydroartemisinin, reference compound]",EC50,[1],4.95 nM
same,EC50,"[2]; DD2, cell line S1 - Clone A8, read-out: EC50 [nM] mean",3.4 nM
same,EC50,"[2]; DD2, cell line S1 - bulk population, read-out: EC50 [nM] mean",4.5 nM
same,EC50,"[2]; DD2, cell line S2 - Clone A3, read-out: EC50 [nM] mean",2 nM
same,EC50,"[2]; DD2, cell line S2 - Clone B9, read-out: EC50 [nM] mean",10.1 nM
same,EC50,"[2]; DD2, cell line S2 - Clone C5, read-out: EC50 [nM] mean",3.48 nM
same,EC50,"[2]; DD2, cell line S2 - bulk population, read-out: EC50 [nM] mean",3.55 nM
same,EC50,"[2]; DD2, cell line S3 - Clone B3, read-out: EC50 [nM] mean",3.51 nM
same,EC50,"[2]; DD2, cell line S3 - Clone B7, read-out: EC50 [nM] mean",3.12 nM
same,EC50,"[2]; DD2, cell line S3 - bulk population, read-out: EC50 [nM] mean",3.44 nM
same,EC50,"[2]; DD2, read-out: EC50 [nM] mean, cell line S3 - Clone B2",8.34 nM
